This note sets out measurements from patent publication US7524823B2, “Macrolides” (Basilea Pharmaceutica AG, priority 2005, dated 2009).

Holding throughout (type): cell-based
Experiment [1] has as its system Staphylococcus aureus 1086. Kind of experiment: MIC by broth microdilution (CAMHB, NCCLS). The settings on record: code B: Staphylococcus aureus 1086. In outline:
(§1)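 Minimal inhibitory concentrations, in μg/ml, come from NCCLS broth microdilution in cation-adjusted Mueller-Hinton broth. Streptococcus pneumoniae strains received 5% (v/v) horse serum supplement instead of laked horse blood.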

Experiment [2] deals with Escherichia coli ATCC 25922. Kind of experiment: MIC by broth microdilution (CAMHB, NCCLS). The settings on record: code C: Escherichia coli ATCC 25922. In outline:
as §1

For experiment [3], the system named is Staphylococcus aureus ATCC 29213. Put plainly: MIC by broth microdilution (CAMHB, NCCLS). The settings on record: code A: Staphylococcus aureus ATCC 29213. An outline of the steps:
as §1

Experiment [4] concerns Streptococcus pneumoniae SL199T. Put plainly: MIC by broth microdilution (CAMHB + 5% horse serum, NCCLS). The settings on record: code E: Streptococcus pneumoniae SL199T. In outline: as §1
In experiment [5] the test system is Streptococcus pneumoniae Tupelo. The description is as above. The settings on record: code F: Streptococcus pneumoniae Tupelo. In outline:
as §1

Experiment [6] relates to Streptococcus pneumoniae 1/1. The description is as above. The settings on record: code D: Streptococcus pneumoniae 1/1. An outline of the steps:
as §1

The test system of experiment [7] is Haemophilus influenzae 12214. Kind of experiment: MIC by broth microdilution (CAMHB + 5% Fildes enrichment, NCCLS). An outline of the steps: as §1
In experiment [8] the test system is Haemophilus influenzae QK50. The experiment is described as above. An outline of the steps: as §1
The subject of another experiment is Human neutrophils. Kind of experiment: Modulation of neutrophil elastase production. The settings on record: test compound 50 μM; fMLP 0.1 μM, cytochalasin B 5 mg/L; blood from 3 donors. The text has this:
The neutrophil granulocyte is a key element of the inflammatory process. The neutrophils migrate to the site of inflammation and can be activated to release toxic products, including proteolytic enzymes such as elastase. […] Elastase is a major secreted product of activated neutrophils and is a major contributor to the destruction of tissue in inflammatory disease. Several bioassays based on the repression of secretion of elastase, have been described and used for the detection of anti-inflammatory products (Johansson, […]. Nat. Prod. 65: 32-41). […] The neutrophils are activated by addition of the bacterial product N-formyl methionyl-leucyl-phenylalanine (fMLP) and cytochalasin B, a stimulator of secretion. The amount of elastase secreted is determined by measuring the reaction of elastase with the chromogenic substrate succinyl-alanyl-alanyl-valyl-nitroanilide ([…]), which generates 4-nitroaniline after cleavage by elastase. […] Human neutrophils are isolated by applying whole heparinized blood to a Histopaque column and collecting the granulocytes by centrifugation. […] The total volume of the reaction mixture is 0.8 mL and concentrations specified are the final concentrations in the mixture. […] Neutrophil preparations from blood from 3 different donors were used in parallel. All samples were measured in duplicate. Results are given as % repression of activation of neutrophils in the following Table 5.

Experiment [9] deals with Propionibacterium acnes SW101T. Kind of experiment: MIC by anaerobic broth microdilution (WCB, NCCLS). The settings on record: code K: Propionibacterium acnes SW101T, 35-37° C., 48 h. In outline:
(§2)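 Anaerobic broth microdilution in WCB (Anaerobe Broth MIC) per NCCLS M11-A5, in jars reaching O2 <0.1% by 2.5 h and CO2 >15% by 24 h. MICs read after 48 h at 35-37° C.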

Experiment [10] has as its system Propionibacterium acnes EG7NS. Kind of experiment: MIC by anaerobic broth microdilution (WCB, NCCLS). The settings on record: 48 h. In outline:
as §2

Where [11] appears, read: code G: Haemophilus influenzae 12214, read-out: MIC.
[12] abbreviates: code H: Haemophilus influenzae QK50, read-out: MIC.
Where [13] appears, read: Cutibacterium acnes, read-out: MIC.
The mark [14] stands for this setting: Cutibacterium acnes, code I: Propionibacterium acnes EG7NS, anaerobic, 35-37° C., read-out: MIC.
[15] abbreviates: code G: Haemophilus influenzae 12214.
Where [16] appears, read: code H: Haemophilus influenzae QK50.
Setting [17] is: code I: Propionibacterium acnes EG7NS, anaerobic, 35-37° C.

In brackets after ≈: the same amount, converted by molar mass. Read-outs that look alike come from different tables or passages of the source.

For the compound `CC[C@H]1OC(=O)[C@H](C)[C@@H](O[C@H]2C[C@@](C)(OC)[C@@H](O)[C@H](C)O2)[C@H](C)[C@@H](O[C@@H]2O[C@H](C)C[C@H](N(C)C)[C@H]2O)[C@](C)(O)C[C@@H](C)C(=O)[C@H](C)[C@@H](O)[C@]1(C)O` [Erythromycin, reference compound], the MIC in [1] (read-out: MIC) was > 32 µg/mL; in experiment [2] (ATCC25922, read-out: MIC) it was > 32 µg/mL; in experiment [3] (ATCC29213, read-out: MIC), 0.5 µg/mL (≈ 0.681 µM); in [4] (read-out: MIC), > 32 µg/mL; in [5] (read-out: MIC), 8 µg/mL; in experiment [6] (read-out: MIC), ≤ 0.06 µg/mL. Besides, the MIC in experiment [7] (setting [11]) is 4 µg/mL; in experiment [8] (setting [12]) it was 2 µg/mL; in experiment [9] (setting [13]) it was > 32 µg/mL; in experiment [10] (Cutibacterium acnes, EG7NS) it was 0.125 µg/mL (≈ 0.17 µM). Besides, in the experiment on Human neutrophils, the “Average repression of activation (%)” value was determined as 5 ± 0.30%.

Take `CC[C@H]1OC(=O)[C@H](C)[C@@H](O[C@H]2C[C@@](C)(OC)[C@@H](O)[C@H](C)O2)[C@H](C)[C@@H](O[C@@H]2O[C@H](C)C[C@H](N(C)C)[C@H]2O)[C@](C)(OC)C[C@@H](C)C(=O)[C@H](C)[C@H]2[C@H](SCCn3cnc4cccnc43)C(=O)O[C@@]21C` [Example 4, (3S, 3aR, 4R, 6R, 8R, 9R, 10S, 11S, 12R, 15R, 15aS)-11-[[2,6-dideoxy-3-C-methyl-3-O-methyl-α-L-ribo-hexopyranosyl]oxy]-15-ethyldecahydro-8-methoxy-4,6,8,10,12,15a-hexamethyl-3-[[2-[3H-imidazo[4,5-b]pyridin-3-yl]ethyl]thio]-9-[[3,4,6-trideoxy-3-(dimethylamino)-β-D-xylo-hexopyranosyl]oxy]-2H-furo [2,3-c] oxacyclotetradecin-2,5,13 (3H,6H)-trione]: the MIC was ≥ 32 µg/mL in experiment [1] (read-out: MIC); 32 µg/mL (≈ 33.7 µM) in experiment [2] (ATCC25922, read-out: MIC); 1 µg/mL (≈ 1.05 µM) in experiment [3] (ATCC29213, read-out: MIC); 0.5 µg/mL in experiment [4] (read-out: MIC); 0.5 µg/mL in experiment [5] (read-out: MIC); ≤ 0.06 µg/mL in experiment [6] (read-out: MIC). The MIC in [7] (Haemophilus influenzae, 12214) was 2 µg/mL; in [8] (Haemophilus influenzae, QK50), 2 µg/mL; in experiment [9] (setting [13]) it was 4 µg/mL (≈ 4.21 µM); in experiment [10] (setting [14]), 0.125 µg/mL (≈ 0.132 µM). In addition, the “Average repression of activation (%)” value in the experiment on Human neutrophils turned out to be 31 ± 2.4%.

Regarding `CC[C@H]1OC(=O)[C@H](C)[C@@H](O[C@H]2C[C@@](C)(OC)[C@@H](O)[C@H](C)O2)[C@H](C)[C@@H](O[C@@H]2O[C@H](C)C[C@H](N(C)C)[C@H]2O)[C@](C)(OC)C[C@@H](C)C(=O)[C@H](C)[C@H]2[C@H](SCCn3cnc4c(N)nc(N)nc43)C(=O)O[C@@]21C` [Example 11], the MIC entry in [1] was “>=32 μg/ml”; in [2] it was “>=32 μg/ml”; in experiment [3], 8 µg/mL (≈ 8.16 µM); in experiment [4] it was 0.125 µg/mL; in experiment [5], 1 µg/mL; in experiment [6], “<=0.06 μg/ml”. Besides, the MIC in experiment [7] (setting [15]) is 2 µg/mL; in experiment [8] (setting [16]), 2 µg/mL; in experiment [9], 2 µg/mL (≈ 2.04 µM); in [10] (setting [17]), “<=0.06 μg/ml”. For the same compound, in the experiment with Human neutrophils, the “Average repression of activation (%)” value came to 20 ± 0.97%.

As for `CC[C@H]1OC(=O)[C@H](C)[C@@H](O[C@H]2C[C@@](C)(OC)[C@@H](O)[C@H](C)O2)[C@H](C)[C@@H](O[C@@H]2O[C@H](C)C[C@H](N(C)C)[C@H]2O)[C@](C)(OC)C[C@@H](C)C(=O)[C@H](C)[C@H]2[C@H](SCCn3cnc4c(N)ncnc43)C(=O)O[C@@]21C` [Example 1, (3S, 3aR, 4R, 6R, 8R, 9R, 10S, 11S, 12R, 15R, 15aS)-3-[[2-[6-amino-9H-purin-9-yl]ethyl]thio]-11-[[2,6-dideoxy-3-C-methyl-3-O-methyl-α-L-ribo-hexopyranosyl]oxy]-15-ethyldecahydro-8-methoxy-4,6,8,10,12,15a-hexamethyl-9-[[3,4,6-trideoxy-3-(dimethylamino)-β-D-xylo-hexopyranosyl]oxy]-2H-furo [2,3-c]oxacyclotetradecin-2,5,13 (3H,6H)-trione], the MIC is ≥ 32 µg/mL in experiment [1] (read-out: MIC); ≥ 32 µg/mL in experiment [2] (ATCC25922, read-out: MIC); 1 µg/mL (≈ 1.04 µM) in [3] (ATCC29213, read-out: MIC); 0.125 µg/mL in experiment [4] (read-out: MIC); 0.5 µg/mL in [5] (read-out: MIC); ≤ 0.06 µg/mL in experiment [6] (read-out: MIC). The MIC in experiment [7] (setting [11]) was 1 µg/mL; in experiment [8] (setting [12]), 0.5 µg/mL; in [9] (setting [13]) it was 1 µg/mL (≈ 1.04 µM); in experiment [10] (setting [14]) it was ≤ 0.06 µg/mL. Moreover, the “Average repression of activation (%)” value with Human neutrophils was found to be 19 ± 0.6%.

In the case of `CC[C@H]1OC(=O)[C@H](C)[C@@H](O[C@H]2C[C@@](C)(OC)[C@@H](O)[C@H](C)O2)[C@H](C)[C@@H](O[C@@H]2O[C@H](C)C[C@H](N(C)C)[C@H]2O)[C@](C)(OC)C[C@@H](C)C(=O)[C@H](C)[C@H]2[C@H](SCCCc3ccc4ncccc4c3)C(=O)O[C@@]21C` [Example 3], the MIC in [1] was 8 µg/mL (≈ 8.22 µM); in [2], >32 µg/mL; in experiment [3] it was 4 µg/mL (≈ 4.11 µM); in experiment [4], 2 µg/mL; in [5], 8 µg/mL; in [6], 0.25 µg/mL. Moreover, the MIC was >32 µg/mL in experiment [7] (setting [15]), 16 µg/mL in experiment [8] (setting [16]), 16 µg/mL (≈ 16.4 µM) in experiment [9] and 0.25 µg/mL (≈ 0.257 µM) in experiment [10] (setting [17]).

As for `CC[C@H]1OC(=O)[C@H](C)[C@@H](O[C@H]2C[C@@](C)(OC)[C@@H](O)[C@H](C)O2)[C@H](C)[C@@H](O[C@@H]2O[C@H](C)C[C@H](N(C)C)[C@H]2O)[C@](C)(OC)C[C@@H](C)C(=O)[C@H](C)[C@H]2[C@H](SCC(=O)Nc3cccc4cccnc34)C(=O)O[C@@]21C` [Example 25], the MIC was 16 µg/mL (≈ 16.2 µM) in experiment [1]; >32 µg/mL in experiment [2]; 1 µg/mL (≈ 1.01 µM) in [3]; 1 µg/mL in experiment [4]; 0.5 µg/mL in [5]; “<=0.06 μg/ml” in experiment [6]. The MIC in [7] (setting [15]) is 4 µg/mL; in experiment [8] (setting [16]), 4 µg/mL; in [9], 4 µg/mL (≈ 4.05 µM); in experiment [10] (setting [17]) it was “<=0.06 μg/ml”.

With `CC[C@H]1OC(=O)[C@H](C)[C@@H](O[C@H]2C[C@@](C)(OC)[C@@H](O)[C@H](C)O2)[C@H](C)[C@@H](O[C@@H]2O[C@H](C)C[C@H](N(C)C)[C@H]2O)[C@](C)(OC)C[C@@H](C)C(=O)[C@H](C)[C@H]2[C@H](SCC(=O)Nc3ccc(C)c(C)c3)C(=O)O[C@@]21C` [Example 22], the MIC was 32 µg/mL (≈ 33.2 µM) in [1]; >32 µg/mL in experiment [2]; 2 µg/mL (≈ 2.07 µM) in [3]; 8 µg/mL in experiment [4]; 8 µg/mL in [5]; “<=0.06 μg/ml” in experiment [6]. Moreover, the MIC in [7] (setting [15]) was 8 µg/mL; in [8] (setting [16]), 8 µg/mL; in experiment [9] it was 32 µg/mL (≈ 33.2 µM); in experiment [10] (setting [17]), “<=0.06 μg/ml”.
